How the values were obtained:
Assay type in all cases: in vivo
Conditions in all cases: applied at 1000 g/h, evaluated after 13 days
[1] = system: Echinochloa crus-galli (ECHCG); test: Herbicidal glasshouse test, pre-emergence, ECHCG
Procedure: (§1) Seeds of a variety of test species are sown in standard soil in pots (Alopecurus myosuroides (ALOMY), Setaria faberi (SETFA), Echinochloa crus-galli (ECHCG), Solanum nigrum (SOLNI), Amaranthus retoflexus (AMARE), Ipomoea hederacea (IPOHE)). After cultivation for one day (pre-emergence) or after 8 days cultivation (post-emergence) under controlled conditions in a glasshouse (at 24/16° C., day/night; 14 hours light; 65% humidity), the plants are sprayed with an aqueous spray solution derived from the formulation of the technical active ingredient in acetone / water (50:50) solution containing 0.5% Tween 20 (polyoxyethelyene sorbitan monolaurate, CAS RN 9005-64-5). […] The test plants are then grown in a glasshouse under controlled conditions in a glasshouse (at 24/16° C., day/night; 14 hours light; 65% humidity) and watered twice daily. After 13 days for pre and post-emergence, the test is evaluated for the percentage damage caused to the plant. The biological activities are shown in the following table on a five point scale (5=80-100%; 4=60-79%; 3=40-59%; 2=20-39%; 1=0-19%).

Solanum nigrum (SOLNI) [2] = test: Herbicidal glasshouse test, pre-emergence, SOLNI
Procedure: as §1

[3] = system: Amaranthus retoflexus (AMARE); test: Herbicidal glasshouse test, pre-emergence, AMARE
Procedure: as §1

[4] = system: Ipomoea hederacea (IPOHE); test: Herbicidal glasshouse test, pre-emergence, IPOHE
Procedure: as §1

Solanum nigrum (SOLNI) [5] = test: Herbicidal glasshouse test, post-emergence, SOLNI
Procedure: as §1

Setaria faberi (SETFA) [6] = test: Herbicidal glasshouse test, post-emergence, SETFA
Procedure: as §1

[7] = system: Alopecurus myosuroides (ALOMY); test: Herbicidal glasshouse test, pre-emergence, ALOMY
Procedure: as §1

[8] = system: Echinochloa crus-galli (ECHCG); test: Herbicidal glasshouse test, post-emergence, ECHCG
Procedure: as §1

[9] = system: Amaranthus retoflexus (AMARE); test: Herbicidal glasshouse test, post-emergence, AMARE
Procedure: as §1

Setaria faberi (SETFA) [10] = test: Herbicidal glasshouse test, pre-emergence, SETFA
Procedure: as §1

[11] = system: Alopecurus myosuroides (ALOMY); test: Herbicidal glasshouse test, post-emergence, ALOMY
Procedure: as §1

[12] = system: Ipomoea hederacea (IPOHE); test: Herbicidal glasshouse test, post-emergence, IPOHE
Procedure: as §1

Row | Structure (SMILES) | PRE Application ECHCG, percentage damage (five point scale) [1] | PRE Application SOLNI, percentage damage (five point scale) (Solanum nigrum (SOLNI) [2]) | PRE Application AMARE, percentage damage (five point scale) [3] | PRE Application IPOHE, percentage damage (five point scale) [4] | POST Application SOLNI, percentage damage (five point scale) (Solanum nigrum (SOLNI) [5]) | POST Application SETFA, percentage damage (five point scale) (Setaria faberi (SETFA) [6]) | PRE Application ALOMY, percentage damage (five point scale) [7] | POST Application ECHCG, percentage damage (five point scale) [8] | POST Application AMARE, percentage damage (five point scale) [9] | PRE Application SETFA, percentage damage (five point scale) (Setaria faberi (SETFA) [10]) | POST Application ALOMY, percentage damage (five point scale) [11] | POST Application IPOHE, percentage damage (five point scale) [12]
1 | Cn1nnnc1NC(=O)c1nn(C)c(=O)n(Cc2cc(F)ccc2F)c1=O [Compound 1.061] | 5 (5=80-100%) | 5 (5=80-100%) | 5 (5=80-100%) | 5 (5=80-100%) | 5 (5=80-100%) | 5 (5=80-100%) | 5 (5=80-100%) | 5 (5=80-100%) | 5 (5=80-100%) | 5 (5=80-100%) | 5 (5=80-100%) | 5 (5=80-100%)
2 | Cn1nnnc1NC(=O)c1nn(C)c(=O)n(Cc2cc(Cl)nc(Cl)c2)c1=O [Compound 1.085] | 5 (5=80-100%) | 5 (5=80-100%) | 5 (5=80-100%) | 5 (5=80-100%) | 5 (5=80-100%) | 2 (2=20-39%) | 5 (5=80-100%) | 5 (5=80-100%) | 5 (5=80-100%) | 2 (2=20-39%) | 5 (5=80-100%) | 5 (5=80-100%)
3 | Cn1nnnc1NC(=O)c1nn(C)c(=O)n(-c2cc(F)c(F)c(F)c2)c1=O [Compound 1.044] | 5 (5=80-100%) | 5 (5=80-100%) | 5 (5=80-100%) | 5 (5=80-100%) | 5 (5=80-100%) | 5 (5=80-100%) | 5 (5=80-100%) | 5 (5=80-100%) | 5 (5=80-100%) | 5 (5=80-100%) | 5 (5=80-100%) | 5 (5=80-100%)
4 | Cn1nnnc1NC(=O)c1nn(C)c(=O)n(-c2ccc(Cl)cc2)c1=O [Compound 1.024] | 5 (5=80-100%) | 5 (5=80-100%) | 5 (5=80-100%) | 5 (5=80-100%) | 5 (5=80-100%) | 5 (5=80-100%) | 5 (5=80-100%) | 5 (5=80-100%) | 5 (5=80-100%) | 5 (5=80-100%) | 5 (5=80-100%) | 5 (5=80-100%)
5 | Cn1nnnc1NC(=O)c1nn(C)c(=O)n(Cc2ccc(C#N)cc2)c1=O [Compound 1.050] | 5 (5=80-100%) | 5 (5=80-100%) | 5 (5=80-100%) | 5 (5=80-100%) | 5 (5=80-100%) | 1 (1=0-19%) | 5 (5=80-100%) | 5 (5=80-100%) | 5 (5=80-100%) | 2 (2=20-39%) | 5 (5=80-100%) | 5 (5=80-100%)
